Reference: a melting point compilation (Tetko et al.)

| melting point | Compound |
| --- | --- |
| 183 to 185 °C | CCNS(=O)(=O)c1c[nH]c(C(=O)O)c1 |
| 124 to 126 °C | CC(=O)c1cc(S(N)(=O)=O)ccc1C |
| 181 to 183 °C | CS(=O)(=O)Nc1ccc(N)cc1Cl |
| 80 to 84 °C | Cc1ccc(N)cc1S(=O)(=O)N(C)C |
| 119 to 121 °C | Cc1cc(C)nc(SCC(=O)NN)n1 |
| 230 to 232 °C | O=C(CCl)Nc1ccc(C(=O)O)cc1 |
| 141 to 143 °C | Cc1cccc(N)c1C(N)=O |
| 81 to 83 °C | O=C(O)CSCC(=O)c1ccc(Cl)cc1 |
| 72 to 74 °C | CCOc1cc(C=CC(=O)O)ccc1OCC(C)C |
| 337 to 339 °C | CC1NC(=O)c2ccccc2NC1=O (centres undefined) |
| 114 to 116 °C | CC(=O)NCc1ccc(Br)cc1 |
| 126 to 128 °C | CN1C(=O)CC(C(=O)O)C1c1ccccc1 (centres undefined) |
| 196 to 198 °C | CC(=O)N(C)c1ccccc1C(=O)O |
| 108 to 110 °C | O=C(O)c1cccc(COc2cccc(F)c2)c1 |
| 219 to 221 °C | Cc1cc(C(=O)O)nn1-c1ccc(Cl)c(Cl)c1 |
| 189 to 191 °C | NC(=O)c1cccc(F)c1I |
| 145 to 147 °C | Nc1c(Br)ccc(Br)c1C(=O)O |
| 106 to 108 °C | NNC(=O)Cc1cccc(F)c1 |
| 141 to 143 °C | CC(=O)N1CC(C)CNc2ccccc21 (centres undefined) |
| 214 to 216 °C | O=C(O)c1cnn(-c2ccccc2)c1Br |
| 74 to 76 °C | CN(CCCC(=O)O)S(=O)(=O)c1ccc(F)cc1 |
| 134 to 136 °C | O=C(Cc1ccc(O)cc1)NCCO |
| 127 to 129 °C | CN(C)C(=O)COc1ccccc1C(=O)O |
| 155 to 157 °C | Cc1ccc(OCCC(=O)O)cc1C |
| 229 to 231 °C | NC(=O)C1CCCN(C(=O)c2cc(Cl)ccc2N)C1 (centres undefined) |
| 112 to 114 °C | O=C(O)CCNC(=O)c1cc(F)ccc1Br |
| 249 to 251 °C | CN1CC(=O)Nc2ccccc2C1=O |

| melting point | Compound |
| --- | --- |
| 190 to 193 °C | O=C(NC1CC1)c1cc(Cl)nc2ccccc12 |
| 35 to 37 °C | Cc1ccc(SCCC(=O)O)cc1C |
| 136 to 138 °C | Nc1c(F)cccc1S(N)(=O)=O |
| 158 to 160 °C | O=C(O)c1cc(F)ccc1N1CCOCC1 |
| 156 to 158 °C | O=C(O)c1ccccc1NCc1ccco1 |
| 53 to 55 °C | COC(=O)c1nc(Cl)ccc1Cl |
| 163 to 165 °C | Cc1cccc(C)c1NC(=O)C(=O)O |
| 115 to 117 °C | O=C(O)C1(c2cccc(F)c2)CC1 |
| 126 to 128 °C | CSc1ccc(C(=O)O)o1 |
| 66 to 68 °C | O=C(NCc1ccccc1)c1cc(Cl)ccn1 |
| 145 to 147 °C | Cc1ccc(OCc2nc(CC(=O)O)cs2)cc1 |
| 198 to 200 °C | O=C(O)c1csc(-c2ccc([N+](=O)[O-])cc2)n1 |
| 219 to 221 °C | O=C(O)c1sc2cccc([N+](=O)[O-])c2c1Cl |
| 102 to 104 °C | CCOc1ccc(CCC(=O)O)cc1 |
| 182 to 184 °C | O=C(O)c1ccccc1Cc1nc2ccccc2s1 |
| 109 to 111 °C | CCNC(=O)COc1ccc(C=O)cc1OC |
| 86 to 88 °C | Cc1cc(C(=O)c2cccnc2)ccc1F |
| 237 to 239 °C | COc1ccc(C(N)CC(=O)O)cc1 (centres undefined) |
| 107 to 109 °C | O=C(O)Cc1cnn(-c2ccccc2)c1 |
| 204 to 206 °C | O=C(O)CN1C(=O)c2ccc(Br)cc2C1=O |
| 110 to 112 °C | CC(=O)Nc1ccc2c(c1)CN(C(=O)OC(C)(C)C)CC2 |
| 208 to 210 °C | O=C(O)c1cc(C2CC2)nc2ccccc12 |
| 116 to 118 °C | CC(O)CNC(=O)c1cccc(O)c1 (centres undefined) |
| 180 to 181 °C | Cc1ccc(NC(=O)CCl)cc1Br |
| 220 to 222 °C | O=C(O)c1cc2ccc(F)cc2s1 |
| 117 to 119 °C | CC(C)Oc1ccc(C(=O)NN)cc1 |
| 63 to 65 °C | CC(C)C(Oc1ccccc1Br)C(=O)O (centres undefined) |

Further lines, the compound ahead of its results:

| Compound | melting point |
| --- | --- |
| O=C1NC(=O)C(=Cc2ccccc2C(F)(F)F)S1 | 170 to 172 °C |
| Cc1cnc2c(Cl)nccc2n1 | 139 to 141 °C |
| COc1ccc(C(=O)O)cc1-c1ccc(C(C)(C)C)cc1 | 259 to 261 °C |
| O=C(O)C1(O)CCCCC1 | 102 to 104 °C |
| Cc1[nH]c(=O)[nH]c1C | 239 to 241 °C |
| Nc1ccc2c(cnn2C(F)F)c1 | 77 to 79 °C |
| CCOC(=O)c1sc2nc(C)nc(Cl)c2c1C | 145 to 147 °C |
| CCOC(=O)c1cc(Cl)cc(Br)c1N | 57 to 59 °C |
| COCCCC(N)=S | 48 to 50 °C |
| Nc1ncc(CCC(=O)O)s1 | 195 to 197 °C |
| O=C(O)c1sc(-c2ccccc2)cc1OCc1ccccc1 | 178 to 180 °C |
| CC(=O)N1CCCCC1C(=O)O (centres undefined) | 137 to 139 °C |
| CC(Cc1nnc(S)o1)c1ccccc1 (centres undefined) | 102 to 104 °C |
| CCS(=O)(=O)N1CCCC(C(=O)O)C1 (centres undefined) | 59 to 61 °C |
| CC(=O)CCCCCCC(=O)O | 38 to 40 °C |
| CCCC(=O)NC1CCCNC1 (centres undefined) | 57 to 59 °C |
| Nc1nnc(-c2ccc(Br)c(F)c2)s1 | 219 to 221 °C |
| O=c1cc2c(n[nH]1)CCOC2 | 218 to 220 °C |
| N#Cc1cccc(OCC(=O)NC2CC2)c1 | 106 to 108 °C |
| Cn1c(=O)n(C)c2cc(S(=O)(=O)Cl)ccc21 | 176 to 178 °C |
| NS(=O)(=O)CCOc1ccccc1 | 102 to 104 °C |
| O=[N+]([O-])c1c[nH]ccc1=NCC1CCCO1 (centres undefined) | 72 to 74 °C |
| O=C(O)C(Sc1ccccc1Cl)c1ccccc1 (centres undefined) | 116 to 118 °C |

| Compound | melting point |
| --- | --- |
| COc1ccc2cc(C(C)Cl)ccc2c1 (centres undefined) | 82 to 84 °C |
| CCOc1cc(C=CC(=O)O)ccc1OCCOc1ccccc1 | 187 to 189 °C |
| N#Cc1cccnc1OCC(F)(F)F | 40 to 42 °C |
| COc1cc(S(=O)(=O)Cl)cc(C(=O)O)c1OC | 159 to 161 °C |
| COc1ccc(-c2nn(Cc3ccccc3)cc2C(=O)O)cc1OC | 110 to 114 °C |
| NC(=O)NC1(C(=O)O)CCCCC1 | 179 to 181 °C |
| Cc1ccc(-c2nn(-c3ccccc3Cl)cc2C(=O)O)cc1 | 257 to 259 °C |
| Nc1nnc(-c2cccs2)[nH]1 | 202 to 204 °C |
| O=C(O)C1CCCN1C(=O)Cc1cn2ccsc2n1 (centres undefined) | 121 to 123 °C |
| CC(C)(C)NS(=O)(=O)c1ccc(Cl)c([N+](=O)[O-])c1 | 88 to 90 °C |
| N#Cc1ccc(CSc2ccccc2C(=O)O)cc1 | 208 to 210 °C |
| O=Cc1cc[nH]c1 | 59 to 61 °C |
| O=C(O)c1cc(I)cc(C(F)(F)F)c1 | 182 to 184 °C |
| COc1cc(C=O)cc(Br)c1OCC(=O)N(C)C | 62 to 64 °C |
| CC1(c2cc(F)ccc2F)NC(=O)NC1=O (centres undefined) | 227 to 229 °C |
| Nc1cc(F)c(Oc2ccc(F)cc2)cc1C(=O)O | 194 to 196 °C |
| Clc1cncc(N2CCOCC2)n1 | 114 to 116 °C |
| N#CCCn1cnc2ccccc2c1=O | 142 to 144 °C |
| NC(=O)CCCOc1ccc(F)cc1 | 125 to 127 °C |
| Cc1cc(Cl)nc(-c2ccncc2)n1 | 119 to 121 °C |
| Cc1cc(Cl)cc([N+](=O)[O-])c1I | 73 to 75 °C |
| Clc1nc(-c2cccnc2)nc2scc(-c3ccccc3)c12 | 155 to 157 °C |
| O=Cc1cn(-c2ccccc2)nc1-c1cccnc1 | 110 to 112 °C |

| Compound | melting point |
| --- | --- |
| O=C(O)c1cc([N+](=O)[O-])ccc1SC1CCCC1 | 203 to 205 °C |
| CCCCS(=O)(=O)Nc1ccc(F)c(N)c1 | 71 to 73 °C |
| O=C(O)c1sccc1S(=O)(=O)C(F)F | 121 to 123 °C |
| CCN(CC)S(=O)(=O)c1ccc(Cl)nc1 | 82 to 84 °C |
| OC(CN1CCCC1)C(F)(F)F (centres undefined) | 78 to 80 °C |
| Cc1nn(Cc2ccccc2)c(C)c1C(=O)O | 137 to 139 °C |
| COc1ccccc1CNc1ccc2[nH]c(=O)[nH]c2c1 | 216 to 218 °C |
| CC(C)C(N)c1nc(-c2nnc[nH]2)no1 (centres undefined) | 210 to 212 °C |
| O=c1[nH]c2ccccc2cc1CO | 239 to 241 °C |
| O=C(Nc1ccccc1)NC1CCNCC1 | 169 to 171 °C |
| Nc1ccc(C(=O)NCc2ccccc2F)cc1 | 95 to 97 °C |
| CC1CC(C)CC2(C1)NC(=O)NC2=O (centres undefined) | 299 to 301 °C |
| Cc1nc(SCC(=O)O)c(C#N)c(C)c1C | 135 to 138 °C |
| CC(C)(C)OC(=O)N1C(=O)NC(C)(C)C1=O | 152 to 154 °C |
| Cn1cnnc1S(C)(=O)=O | 132 to 134 °C |
| COCC1(C)CNC(=O)C1 (centres undefined) | 62 to 64 °C |
| COc1cc(OC)cc(-c2cc(N)on2)c1 | 116 to 118 °C |
| Cc1ncc(CN)n1-c1ccccc1 | 46 to 48 °C |
| O=c1[nH]c(-c2cccnc2)no1 | 234 to 236 °C |
| COc1cc(C=O)ccc1OCC(=O)N1CCCC1 | 117 to 119 °C |
| CCn1c(SCC(=O)N2c3ccccc3Sc3ccccc32)nnc1-c1ccco1 | 152 to 154 °C |
| CN(CCO)CCC(=O)O | 89 to 91 °C |
| Cc1cc(N)ccc1OCCN1CCCC1 | 112 to 114 °C |

| Compound | melting point |
| --- | --- |
| O=C(O)CCc1cnn(-c2ccccc2)c1 | 80 to 89 °C |
| ONCc1ccc(F)cc1 | 59 to 61 °C |
| CS(=O)(=O)CCS(=O)(=O)c1ccc(N)cc1 | 209 to 211 °C |
| NNC(=O)C1CCN(c2ncccn2)CC1 | 237 to 239 °C |
| COCCn1cnc2c1c(=O)n(CC(=O)O)c(=O)n2Cc1ccccc1 | 131 to 133 °C |
| CC(=O)N1CCN(CC(N)=S)CC1 | 199 to 201 °C |
| Fc1cccc(-c2nnc(CCl)o2)c1 | 65 to 67 °C |
| NS(=O)(=O)c1ccc(-n2cccn2)c(F)c1 | 190 to 192 °C |
| Nc1ccc(-c2ccccn2)cn1 | 89 to 91 °C |
| Oc1ccc(OC2CCCC2)cc1 | 50 to 52 °C |
| CCOC(=O)c1cc(C2CC2)[nH]n1 | 98 to 100 °C |
| NNc1ccc(S(=O)(=O)NC2CC2)cc1 | 134 to 136 °C |
| OC(CC1COCCN1)c1ccco1 (centres undefined) | 84 to 86 °C |
| CCn1c2ccccc2c2cc(CNCCCO)ccc21 | 76 to 78 °C |
| Cc1cnc(Br)nc1Br | 58 to 60 °C |
| Clc1nc(CN2CCOCC2)nc2sc3c(c12)CCC3 | 103 to 107 °C |
| CCCc1noc2nc(-c3ccco3)cc(C(=O)O)c12 | 204 to 206 °C |
| O=C(O)c1cncc(OCC(F)F)c1 | 166 to 168 °C |
| NC(=O)c1cncs1 | 194 to 196 °C |
| CC(C)(C)OC(=O)Nc1cc2c(cc1N)OCO2 | 93 to 95 °C |
| CC(C)(C)OC(=O)N1CC2(CNC(=O)C2)C1 | 163 to 165 °C |
